Experimental findings from patent US20020028258A1, “Immunostimulant compositions and associated methods” (Pharmanex, LLC, priority 2000, published 2002) are described below.

Common to all, as to assay type: cell-based, human
Common to all, as to conditions: 50 ng/ml

The subject of assay [1] is CD4+ immune cells. Briefly: Immune Cell Stimulation Assay Method (CD69 expression, flow cytometry), CD4+. The method, then: (§1) Each immunostimulation assay uses a Becton Dickinson FACScan flow cytometer to quantify immune cell activity. The specific protocol for measuring such activity utilizes freshly drawn human blood collected in sodium heparin to 200 μL. Echinacea extract is added in a desired concentration after being mixed with 50 μL of phosphate buffer. The blood and Echinacea mixture is vortexed and incubated at 37° C. for 5 hours to allow adequate time for immune cell stimulation.
(§2) Positive controls consist of PMA (50 ng/ml), PHA ([…]), or CD2/CD2R (5 μL/250 μL) and negative controls consist of DMSO (2% in RPMI), RPMI, and cyclosporin A (10 μg/ml). For staining, 20 μL of reagent cocktail (CD4FITC/CD69PE/CD3PerCP (expressed on the helper/inducer T-lymphocyte subset and is the primary receptor for HIV); CD8FITC/CD69PE/CD3PerCP (expressed on the human suppressor/cytotoxic T-lymphocytes and on a subset of natural killer lymphocytes); CD19FITC/CD69PE/CD45PerCP (expressed on B-lymphocytes); CD56FITC/CD69PE/CD45PerCP (expressed on NK lymphocytes), for examples) are used.
Following the cell stimulation period described above, solutions of fractions and constituents are compared quantitatively with the above-recited controls. Next 50 μL of the stimulated blood samples are added to each of the tubes containing the reagent cocktail, vortexed and incubated at room temperature for 30 min. in the dark. Then 450 μL of 1× FACS lysing solution is added to each tube which is vortexed gently and incubated in the dark at room temp. for 20 min. The prepared samples are analyzed in the flow cytometer. CD69 (CD stands for cluster determinant) is the first […] expressed by any of these cells following stimulation and is produced on the surface of T-, B- and NK-lymphocytes. […] Individual cell types are quantitated using appropriate stains and gating as known by those skilled in the art.
(Flow cytometry measures light scatter and fluorescence of single cells or particles in a stream.)

Assay [2] has as its system CD8+ immune cells. Briefly: Immune Cell Stimulation Assay Method (CD69 expression, flow cytometry), CD8+. On the procedure:
as §1, §2
(§3) Following the cell stimulation period described above, solutions of fractions and constituents are compared quantitatively with the above-recited controls. […] The prepared samples are analyzed in the flow cytometer. […] Individual cell types are quantitated using appropriate stains and gating as known by those skilled in the art.

The subject of assay [3] is CD19+ cells. Briefly: Immune Cell Stimulation Assay Method (CD69 expression, flow cytometry), CD19+. The method, then:
as §1, §2, §3

The test system of assay [4] is CD56+ cells. Briefly: Immune Cell Stimulation Assay Method (CD69 expression, flow cytometry), CD56+. The method, then: as §1, §2, §3

With `CCCCCCCCCCCCCC(=O)O[C@@H]1[C@@H](C)[C@@]2(O)[C@@H](C=C(CO)C[C@]3(O)C(=O)C(C)=C[C@@H]23)[C@@H]2C(C)(C)[C@]12OC(C)=O` [PMA], the “CD4+ stimulation, positive control” value in assay [1] (Table 2) came to 99.16%; in assay [1] (Table 3), 99.16%; in assay [1] (Table 4), 99.20%; in assay [1] (Table 7), 99.42%; in assay [1] (Table 8) it was 98.770%. The “CD8+ stimulation, positive control” value in assay [2] (Table 7) stood at 99.04%; in assay [2] (Table 8), 98.320%. For the same molecule, the “CD19+ stimulation, positive control” value in assay [3] (Table 7) came out at 97.68%; in assay [3] (Table 8), 98.820%. Moreover, the figures for the “CD56+ stimulation, positive control” value in assay [4] (Table 7) and in assay [4] (Table 8) were 94.14% and 94.940%, respectively.
